Experimental data reported in patent publication US20230203023A1, “SALT AND CRYSTAL FORMS OF GLP-1R AGONISTS AND USES THEREOF” (QILU REGOR THERAPEUTICS INC., priority 2020, published 2023).
Converted amounts (≈) assume the structure as drawn. Like-named read-outs stand apart in the source and are kept apart here.

Experiments:
[1] = Kinetic solubility test in water and bio-relevant media (SGF, FaSSIF, FeSSIF); type: physicochemical; details: for solubility at 1 h: 37 °C, thermodynamic from solid, read-out: S: solubility; for solubility at 1 h / S: solubility: 37° C.; for Purity (%), area percentage of API: for reference only (suspensions); for FC: form change: residual solids by XRPD; for pH: supernatant
Procedure: (§1) Weigh 100 mg of sodium chloride and 50 mg of Triton X-100 into a 50-mL volumetric flask. Add appropriate volume of purified water and sonicate until all solids are completely dissolved. Add about 68 μL of 12 M HCl and sufficient purified water closely to the target volume and adjust to pH 1.8. Dilute to volume with purified water, mix well and check the pH with a pH meter.
as §1, with “170” for “100”, “phosphate monobasic, 21” for “chloride and 50”, “sodium hydroxide and 310 mg of sodium chloride, 110 mg of SIF powder” for “Triton X-100”, “Add” for “Add about 68 μL of 12 M HCl and”, “6.5.” for “1.8.”
Weigh 0.41 mL of glacial acetic acid, 202 mg of sodium hydroxide and 594 mg of sodium chloride, 560 mg of SIF powder into a 50-mL volumetric flask. Add appropriate volume of purified water to dissolve the solids. Then add sufficient purified water closely to the target volume and adjust to pH 5.0. Dilute to volume with purified water, mix well and check the pH with a pH meter.
Kinetic solubility was evaluated in water and three bio-relevant media (SGF, FaSSIF and FeSSIF) for 1/4/24 hours. 3-4 mg of solids were suspended in 3 mL each medium (solid loading: 1 mg/mL, calculated using freeform) to get a suspension, followed by rolling (25 rpm) at 37° C. for 1/4/24 hours. At each time point, ˜1.0 mL of suspension was sampled out for centrifugation (12000 rpm, 2 min) and filtration through 0.45 μm PTFE membrane to obtain supernatant for HPLC and pH tests, the residual solids were analyzed by XRPD.
Kinetic solubility was evaluated for 1:1 Compound II Citrate Salt (Form A), 1:1 Compound II Tris Salt (Form B), and freeform of Compound II in water and three bio-relevant media (SGF, FaSSIF and FeSSIF) for 1/4/24 hours. 3-4 mg of solids were suspended in 3 mL each medium (solid loading:
1 mg/mL, calculated using freeform) to get a suspension, followed by rolling (25 rpm) at 37° C. for 1/4/24 hours. At each time point, ˜1.0 mL of suspension was sampled out for centrifugation (12000 rpm, 2 min) and filtration through 0.45 μm PTFE membrane to obtain supernatant for HPLC and pH tests, the residual solids were analyzed by XRPD. […] The purity results were for reference only since the samples were all suspensions.

[2] = Solid stability evaluation (I/II), XRPD and HPLC; type: physicochemical; details: for Purity (area %): listed as Amorphous Free form
Procedure: To evaluate the physical and chemical stability of 1:1 Compound I Tris Salt (Form A) and amorphous free form, samples were stored under the conditions of 60° C. for 1 day and 25° C./60% RH or 40° C./75% RH for 1 week, respectively.
To evaluate the physical and chemical stability of 1:1 Compound II Citrate Salt (Form A), 1:1 Compound II Tris Salt (Form B) and freeform, samples were stored under the conditions of 60° C. for 1 day and 25° C./60% RH or 40° C./75% RH for 1 week, respectively.

[3] = FaSSIF, 4 hours, listed as Free form amorphous
[4] = FaSSIF, 24 hours, listed as Free form amorphous
[5] = FeSSIF, 1 hour, listed as Free form amorphous
[6] = FeSSIF, 4 hours, listed as Free form amorphous
[7] = FeSSIF, 24 hours, listed as Free form amorphous
[8] = H2O, 1 hour, listed as Free form amorphous
[9] = H2O, 4 hours, listed as Free form amorphous
[10] = H2O, 24 hours, listed as Free form amorphous
[11] = SGF, 1 hour, listed as Free form amorphous
[12] = SGF, 4 hours, listed as Free form amorphous
[13] = SGF, 24 hours, listed as Free form amorphous

- solubility at 1 h ([1]; FaSSIF, pH 6.5, fassif, FaSSIF, 1 hour): 0.2 mg/mL (≈ 356 µM)
- Purity (%), area percentage of API ([1]; FaSSIF, 1 hour, listed as Free form amorphous): 93.54%
- S: solubility [1, 3]: 0.08 mg/mL
- Purity (%), area percentage of API ([1]; FaSSIF, 4 hours): 49.59%
- S: solubility [1, 4]: 0.04 mg/mL
- Purity (%), area percentage of API [1, 4]: 63.24%
- solubility at 1 h ([1]; FeSSIF, pH 5, fessif, FeSSIF, 1 hour): 0.4 mg/mL (≈ 712 µM)
- Purity (%), area percentage of API [1, 5]: 94.78%
- S: solubility [1, 6]: 0.5 mg/mL
- Purity (%), area percentage of API [1, 6]: 91.80%
- S: solubility [1, 7]: 0.4 mg/mL
- Purity (%), area percentage of API [1, 7]: 77.57%
- S: solubility [1, 8]: 0.03 mg/mL
- Purity (%), area percentage of API [1, 8]: 100.00%
- S: solubility [1, 9]: 0.02 mg/mL
- Purity (%), area percentage of API [1, 9]: 87.13%
- S: solubility [1, 10]: <LOQ
- Purity (%), area percentage of API [1, 10]: 9.97%
- S: solubility ([1]; SGF, 1 hour): 0.4 mg/mL
- Purity (%), area percentage of API [1, 11]: 93.07%
- S: solubility [1, 12]: 0.6 mg/mL
- Purity (%), area percentage of API [1, 12]: 94.02%
- S: solubility [1, 13]: 0.8 mg/mL
- Purity (%), area percentage of API [1, 13]: 91.48%
- FC: form change ([1]; FaSSIF, 1 hour): No
- FC: form change ([1]; FaSSIF, 4 hours): No
- FC: form change [1, 4]: Yes
- FC: form change ([1]; FeSSIF, 1 hour): No
- FC: form change ([1]; FeSSIF, 4 hours): No
- FC: form change ([1]; FeSSIF, 24 hours): No
- FC: form change ([1]; H2O, 1 hour): No
- FC: form change ([1]; H2O, 4 hours): No
- FC: form change ([1]; H2O, 24 hours): No
- FC: form change [1, 11]: No
- FC: form change [1, 12]: No
- FC: form change [1, 13]: No
- pH ([1]; FaSSIF, 1 hour): 6.5
- pH [1, 3]: 6.5
- pH [1, 4]: 6.4
- pH [1, 5]: 5.0
- pH ([1]; FeSSIF, 4 hours): 5.0
- pH ([1]; FeSSIF, 24 hours): 5.0
- pH [1, 8]: 8.4
- pH [1, 9]: 7.3
- pH [1, 10]: 6.8
- pH [1, 12]: 1.9
- Form change ([2]; 25° C./60% RH (open), 1 week): No
- Observation ([2]; 25° C./60% RH (open), 1 week): Yellowish
- Purity (area %) ([2]; 25° C./60% RH (open), 1 week): 93.06 area %
- Purity (area %) ([2]; 40° C./75% RH (open), 1 week): 89.59 area %
- Form change ([2]; 60° C. (capped), 1 day): No
- Observation ([2]; 60° C. (capped), 1 day): Yellowish
- Purity (area %) ([2]; 60° C. (capped), 1 day): 86.88 area %
- Form change ([2]; Initial): No
- Observation ([2]; Initial): White powder
- Purity (area %) ([2]; Initial): 94.71 area %
SMILES: O=C(O)c1ccc2nc(CN3CC=C(c4cccc(OCc5ccc(Cl)cc5F)c4)CC3)n(C[C@@H]3CCO3)c2c1 [Compound I, (S)-2-((4-(3-((4-chloro-2-fluorobenzyl)-oxy)phenyl)-3,6-dihydropyridin-1(2H)-yl)methyl)-1-(oxetan-2-ylmethyl)-1H-benzo[d]-imidazole-6-carboxylic acid]
